Ends that are not written are not given here.
Assays:
Sf9 cells = assay: CPP-mediated enhancement of Cy3-dsRNA uptake into insect cells; assay type: cell-based, Spodoptera frugiperda
Source text: (§1) Sample preparation and analysis methods were based on those previously reported (Jafari et al. (201 4) “Serum stability and physicochemical characterization of a novel amphipathic peptide C6M 1 for siRNA delivery”, PLoS One, 9(5), e97797; and Gillet et al. (2017) “Investigating Engineered Ribonucleoprotein Particles to Improve Oral RNAi Delivery in Crop Insect Pests”, Frontiers in Physiology, 8(256), doi: 10.3389/fphys.2017.00256). Reagents are described in Examples 1 and 2. Nanocomplex samples were prepared in one of several ways, depending on type of CPP, RNA, or assay. For insect cell-based assays with CPP-FAM or CPP·mRNA, increasing amounts of CPP (from 25 μM to 100 μM, in 25 μM increments) were used alone or mixed with […] mRNA in water and incubated at 25° C. for 15 minutes prior to cell treatment. […] Final optimal CPP concentration was assessed by amount of fluorescent signal apparent within cells. […] Final optimal molar ratio selected for cell experiments were determined by increase of the apparent size of the Cy3-dsRNA band on a native agarose gel (FIG. 2A and FIG. 2B), and/or appearance and increase in size of the complex peak detected by a Zetasizer Ultra (Malvern Panalytical, Malvern, United Kingdom) DLS instrument (FIG. 2C). […] Final optimal BAPC1 concentration was assessed by amount of fluorescent signal apparent within cells. […]

S2 cells = assay: as above; assay type: cell-based, Drosophila melanogaster
Source text: as §1

[1] = same amount as used in the complexes, no CPP

| Substance | fluorescent signal in single-component treated cells (Sf9 cells; [1]) | fluorescent signal of YFP or Cy3 in single-component treated cells (S2 cells; [1]) | internalization of Cy3-dsRNA versus Cy3-dsRNA alone (Sf9 cells; 5.9 μg BAPC1 and 100 ng Cy3-dsRNA, N/P ratio of 5, 4 hours) | internalization of Cy3-dsRNA versus Cy3-dsRNA alone (S2 cells; 17.6 μg BAPC1 and 100 ng Cy3-dsRNA, N/P ratio of 15) |
| --- | --- | --- | --- | --- |
| UCCUUGAUAUCCGGUUCGGUA / AGGAACUAUAGGCCAAGCCAU (Cy3 at each 5' end, chemistry not fully specified; one strand is listed 3' to 5') [Cy3-siRNA] | Low or no fluorescent signal | Low or no fluorescent signal |  |  |
| bis(FLIVI)-K-KKKK; bis(FLIVIGSII)-K-KKKK (chain 1 FLIVIK(FLIVI)KKKK; chain 2 FLIVIGSIIK(FLIVIGSII)KKKK; also: forms branched peptide capsules) [BAPC1] |  |  | Increased internalization of labeled dsRNA | increased internalization of labeled dsRNA |
